Measurements taken from PubChem BioAssay AID1845219 (Molecular Pharmacology Branch, DTP, NCI, 2023).

Tested on: SYO-1 tumor spheroids, viability % test/control
Assay: Anticancer human tumor SYO-1 cell line growth inhibition;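 note: spheroids exposed to agents for 7 days before viability read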;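 for viability, T/C: 100% = DMSO vehicle control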
Conditions: spheroids with HUVEC and MSC; for IC50: curve of first compound; for viability, T/C: stronger effect = lower value; active = viability on the fitted dose curve at most 10% of control; inactive = the rest
How it was run: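 Complex spheroids of malignant cells with endothelial cells and mesenchymal stem cells; agents alone or combined, from near clinical Cmax (or 10 microM if unknown) down in half-log steps, 0.25% DMSO final.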

[1] = second compound 0.003 µM, first compound 0.0316 µM
[2] = second compound 0.003 µM, first compound 0.1 µM
[3] = second compound 0.003 µM, first compound 0.316 µM
[4] = second compound 0.003 µM, first compound 1 µM
[5] = second compound 0.003 µM, first compound 3.16 µM
[6] = second compound 0.003 µM, first compound 10 µM

Cn1ncnc1[C@H]1c2n[nH]c(=O)c3cc(F)cc(c23)N[C@@H]1c1ccc(F)cc1 + COc1cc2c(cc1O)CCNC21CSC2c3c(OC(C)=O)c(C)c4c(c3C(COC1=O)N1C(O)C3Cc5cc(C)c(OC)c(O)c5C(C21)N3C)OCO4
< 9.49 nM: IC50 (second compound 30 pM) | IC50 (second compound 94.9 pM) | IC50 (second compound 0.0003 µM) | IC50 (second compound 0.000949 µM) | IC50 (second compound 0.003 µM)
active: viability, T/C (second compound 30 pM, first compound 0.03 µM) 8.47% | viability, T/C (second compound 30 pM, first compound 0.0949 µM) 3.42% | viability, T/C (second compound 30 pM, first compound 0.3 µM) 2.17% | viability, T/C (second compound 30 pM, first compound 0.949 µM) 1.14% | viability, T/C (second compound 30 pM, first compound 3 µM) 1.2% | viability, T/C (second compound 94.9 pM, first compound 0.00949 µM) 9.24% | viability, T/C (second compound 94.9 pM, first compound 0.03 µM) 3.72% | viability, T/C (second compound 94.9 pM, first compound 0.0949 µM) 2.32% | viability, T/C (second compound 94.9 pM, first compound 0.3 µM) 1.61% | viability, T/C (second compound 94.9 pM, first compound 0.949 µM) 1.11% | viability, T/C (second compound 94.9 pM, first compound 3 µM) 1.06% | viability, T/C (second compound 0.0003 µM, first compound 0.00949 µM) 1.89% | viability, T/C (second compound 0.0003 µM, first compound 0.03 µM) 1.72% | viability, T/C (second compound 0.0003 µM, first compound 0.0949 µM) 1.38% | viability, T/C (second compound 0.0003 µM, first compound 0.3 µM) 1.22% | viability, T/C (second compound 0.0003 µM, first compound 0.949 µM) 1.37% | viability, T/C (second compound 0.0003 µM, first compound 3 µM) 0.93% | viability, T/C (second compound 0.000949 µM, first compound 0.00949 µM) 0.99% | viability, T/C (second compound 0.000949 µM, first compound 0.03 µM) 0.87% | viability, T/C (second compound 0.000949 µM, first compound 0.0949 µM) 0.78% | viability, T/C (second compound 0.000949 µM, first compound 0.3 µM) 0.83% | viability, T/C (second compound 0.000949 µM, first compound 0.949 µM) 0.68% | viability, T/C (second compound 0.000949 µM, first compound 3 µM) 0.57% | viability, T/C (second compound 0.003 µM, first compound 0.00949 µM) 0.13% | viability, T/C (second compound 0.003 µM, first compound 0.03 µM) 0.14% | viability, T/C (second compound 0.003 µM, first compound 0.0949 µM) 0.13% | viability, T/C (second compound 0.003 µM, first compound 0.3 µM) 0.14% | viability, T/C (second compound 0.003 µM, first compound 0.949 µM) 0.52% | viability, T/C (second compound 0.003 µM, first compound 3 µM) 0.24%
inactive: viability, T/C (second compound 30 pM, first compound 0.00949 µM) 40.6%

[2H]c1nc(C)nc([2H])c1-c1cc(NC[C@@H](C)c2cccc3c(C(=O)NC)ccnc23)ncn1 + CC[C@@]1(O)C(=O)OCc2c1cc1n(c2=O)Cc2cc3c(CN(C)C)c(O)ccc3nc2-1
> 10000 nM: IC50 (second compound 0.003 µM)
< 31.6 nM: IC50 (second compound 0.00949 µM) | IC50 (second compound 0.03 µM) | IC50 (second compound 0.0949 µM) | IC50 (second compound 0.3 µM)
active: viability, T/C (second compound 0.03 µM, first compound 0.0316 µM) 1.86% | viability, T/C (second compound 0.03 µM, first compound 0.1 µM) 2.19% | viability, T/C (second compound 0.03 µM, first compound 0.316 µM) 1.77% | viability, T/C (second compound 0.03 µM, first compound 1 µM) 2.01% | viability, T/C (second compound 0.03 µM, first compound 3.16 µM) 1.73% | viability, T/C (second compound 0.03 µM, first compound 10 µM) 1.75% | viability, T/C (second compound 0.0949 µM, first compound 0.0316 µM) 1.57% | viability, T/C (second compound 0.0949 µM, first compound 0.1 µM) 1.61% | viability, T/C (second compound 0.0949 µM, first compound 0.316 µM) 1.6% | viability, T/C (second compound 0.0949 µM, first compound 1 µM) 1.39% | viability, T/C (second compound 0.0949 µM, first compound 3.16 µM) 1.9% | viability, T/C (second compound 0.0949 µM, first compound 10 µM) 1.55% | viability, T/C (second compound 0.3 µM, first compound 0.0316 µM) 1.71% | viability, T/C (second compound 0.3 µM, first compound 0.1 µM) 1.76% | viability, T/C (second compound 0.3 µM, first compound 0.316 µM) 2.05% | viability, T/C (second compound 0.3 µM, first compound 1 µM) 1.52% | viability, T/C (second compound 0.3 µM, first compound 3.16 µM) 1.73% | viability, T/C (second compound 0.3 µM, first compound 10 µM) 2.12%
inactive: viability, T/C [1] 92.5% | viability, T/C [2] 99.4% | viability, T/C [3] 94.6% | viability, T/C [4] 93% | viability, T/C [5] 92.3% | viability, T/C [6] 93.7% | viability, T/C (second compound 0.00949 µM, first compound 0.0316 µM) 25.9% | viability, T/C (second compound 0.00949 µM, first compound 0.1 µM) 31.1% | viability, T/C (second compound 0.00949 µM, first compound 0.316 µM) 28.9% | viability, T/C (second compound 0.00949 µM, first compound 1 µM) 20% | viability, T/C (second compound 0.00949 µM, first compound 3.16 µM) 19.2% | viability, T/C (second compound 0.00949 µM, first compound 10 µM) 17.2%

CC(C)n1c(=O)n(C)c2cnc3cc(F)c(-c4ccc(OCCCN5CCCCC5)nc4)cc3c21 + COc1cc2c(cc1O)CCNC21CSC2c3c(OC(C)=O)c(C)c4c(c3C(COC1=O)N1C(O)C3Cc5cc(C)c(OC)c(O)c5C(C21)N3C)OCO4
< 31.6 nM: IC50 (second compound 94.9 pM) | IC50 (second compound 0.0003 µM) | IC50 (second compound 0.000949 µM) | IC50 (second compound 0.003 µM)
inactive: viability, T/C (second compound 30 pM, first compound 0.0316 µM) 99.7% | viability, T/C (second compound 30 pM, first compound 0.1 µM) 97.7% | viability, T/C (second compound 30 pM, first compound 0.316 µM) 98% | viability, T/C (second compound 30 pM, first compound 1 µM) 99.4% | viability, T/C (second compound 30 pM, first compound 3.16 µM) 89.7% | viability, T/C (second compound 30 pM, first compound 10 µM) 35.5% | viability, T/C (second compound 94.9 pM, first compound 0.0316 µM) 37.6% | viability, T/C (second compound 94.9 pM, first compound 0.1 µM) 33.4% | viability, T/C (second compound 94.9 pM, first compound 0.316 µM) 43.2% | viability, T/C (second compound 94.9 pM, first compound 1 µM) 52.4% | viability, T/C (second compound 94.9 pM, first compound 3.16 µM) 50% | viability, T/C (second compound 94.9 pM, first compound 10 µM) 21.6%
7380 nM: IC50 (second compound 30 pM)
active: viability, T/C (second compound 0.0003 µM, first compound 0.0316 µM) 2.89% | viability, T/C (second compound 0.0003 µM, first compound 0.1 µM) 2.78% | viability, T/C (second compound 0.0003 µM, first compound 0.316 µM) 3.15% | viability, T/C (second compound 0.0003 µM, first compound 1 µM) 3.23% | viability, T/C (second compound 0.0003 µM, first compound 3.16 µM) 2.46% | viability, T/C (second compound 0.0003 µM, first compound 10 µM) 0.62% | viability, T/C (second compound 0.000949 µM, first compound 0.0316 µM) 0.98% | viability, T/C (second compound 0.000949 µM, first compound 0.1 µM) 1.01% | viability, T/C (second compound 0.000949 µM, first compound 0.316 µM) 0.98% | viability, T/C (second compound 0.000949 µM, first compound 1 µM) 1.04% | viability, T/C (second compound 0.000949 µM, first compound 3.16 µM) 0.96% | viability, T/C (second compound 0.000949 µM, first compound 10 µM) 0.32% | viability, T/C [1] 0.12% | viability, T/C [2] 0.12% | viability, T/C [3] 0.12% | viability, T/C [4] 0.13% | viability, T/C [5] 0.13% | viability, T/C [6] 0.22%
